Patent US11267844B2, “Spirothietane nucleosides” (Janssen Pharmaceutica NV, priority 2017, dated 2022)
Where two headings read alike, the source gives them in different places.

Key:
[1] = Cytotoxicity in Vero cells (ATPlite cell viability); format: cell-based; conditions: African green monkey, Table 1A, read-out: Tox Vero (CC50)
Experimental: (§1) The antiviral activity of the compounds against DENV-2/16681/eGFP was determined in a phenotypic antiviral assay with eGFP read-out, a measure for the amount of virus (TV-WI-03476 and TV-WI-05601). In parallel, cytotoxicity of the compounds was measured using ATPLite™ (PerkinElmer, Waltham, Mass.). The assay was performed in two different cell-lines (Vero and Huh-7) to exclude cell-specific activity of the compound.
(§2) In parallel, cytotoxic effects of the compounds (50% cytotoxic concentration [CC50] and 90% cytotoxic concentration [CC90]) were evaluated using an ATPlite cell viability luminescence assay (PerkinElmer). To this end, ATPlite was added to the wells according to the supplier's instructions once the eGFP read-out was performed, and the luminescence was measured; a measure directly relating to the number of viable cells. The CC50 was determined as the 50% inhibitory concentration for the luminescent signal in compound-treated DENV-infected cells compared to untreated DENV-infected cells (virus control), using a medium control as baseline of emitted light (i.e., 0% signal).

DENV-2/16681/eGFP [2] = test: Antiviral activity against DENV-2/16681/eGFP in Vero cells (eGFP read-out); format: cell-based, dengue virus serotype 2; conditions: Dengue virus, DENV2, Vero, 72 h, read-out: DENV Vero (EC50, μM)
Experimental: as §1
(§3) DENV-2/16681/eGFP was produced by the transfection of the in vitro transcribed RNA of plasmid pFK-DVs-G2A (purchased from Prof. R. Bartenschlager, University of Heidelberg, Germany; FIG. 1) into Huh-7 cells (human hepatocarcinoma cells; kindly provided by Prof. R. Bartenschlager) (TV-WI-04247).
(§4) In brief, 2,500 Vero cells (African green monkey kidney cells; European Collection of Cell Cultures [ECACC], Porton Down, UK; catalogue number 84113001) or Huh-7 cells were seeded in 384-well plates containing 9-fold serially diluted test compound. After incubating 24 h at 37° C., Vero and Huh-7 cells were infected with DENV-2/16681/eGFP at a multiplicity of infection (MOI) of 1 and 5, respectively. After 3 days of incubation at 37° C., the viral replication was quantified by measuring eGFP expression in the cells with a laser microscope. The 50% effective concentration (EC50) was defined as the concentration inhibiting 50% of the eGFP expression of the compound-treated DENV-infected cells vs. the untreated DENV-infected cells (virus control), using the cell controls as baseline of eGFP signal (i.e., 0% signal). In the same way, the 90% effective concentration (EC90) was calculated.

[3] = Cytotoxicity in Huh-7 cells (ATPlite cell viability); format: cell-based; conditions: human, Table 1A, read-out: Tox Huh-7 (CC50)
Experimental: as §1, §2

[4] = system: HCV replicon (NS3-NS5B regions of HCV type 1b) in Huh-7 luc/neo cells; test: HCV replicon assay (Huh-Luc cells, luciferase read-out); format: cell-based; conditions: Hepatitis C virus, Huh-7, 72 h
Description: The compounds of Formula (I) were examined for activity against HCV in a cellular assay. […] The cellular assay was based on a bicistronic expression construct, as described by Lohmann et al. (1999) Science vol. 285 pp. 110-113 with modifications described by Krieger et al. (2001) Journal of Virology 75: 4614-4624, in a multi-target screening strategy.
In essence, the method was as follows. The assay utilized the stably transfected cell line Huh-7 luc/neo (hereafter referred to as Huh-Luc). This cell line harbors an RNA encoding a bicistronic expression construct comprising the wild type NS3-NS5B regions of HCV type 1b translated from an internal ribosome entry site (IRES) from encephalomyocarditis virus (EMCV), preceded by a reporter portion (FfL-luciferase), and a selectable marker portion (neo^R, neomycine phosphotransferase). The construct is bordered by 5′ and 3′ NTRs (non-translated regions) from HCV genotype 1b. Continued culture of the replicon cells in the presence of G418 (neo^R) is dependent on the replication of the HCV-RNA. The stably transfected replicon cells that express HCV-RNA, which replicates autonomously and to high levels, encoding inter alia luciferase, were used for screening the antiviral compounds.
The replicon cells were plated in 384-well plates in the presence of the test and control compounds which were added in various concentrations. Following an incubation of three days, HCV replication was measured by assaying luciferase activity (using standard luciferase assay substrates and reagents and a Perkin Elmer ViewLux™ ultraHTS microplate imager). Replicon cells in the control cultures have high luciferase expression in the absence of any inhibitor. The inhibitory activity of the compound on luciferase activity was monitored on the Huh-Luc cells, enabling a dose-response curve for each test compound. EC50 values were then calculated, which value represents the amount of the compound required to decrease the level of detected luciferase activity by 50%, or more specifically, the ability of the genetically linked HCV replicon RNA to replicate.

DENV-2/16681/eGFP [5] = test: Antiviral activity against DENV-2/16681/eGFP in Huh-7 cells (eGFP read-out); format: cell-based, dengue virus serotype 2; conditions: Dengue virus, DENV2, Huh-7, 72 h, read-out: DENV Huh-7 (EC50, μM)
Experimental: as §1, §3, §4

CHIKV strain S27 = test: CHIKV CPE inhibition assay in Huh7 cells; format: cell-based; conditions: Chikungunya virus, Huh-7, 48 h
Experimental: The antiviral activities of the nucleoside analogs against chikungunya virus (CHIKV) were tested using a cell-based high-throughput CPE (cytopathic effect) inhibition assay. In this assay, CHIKV strain S27 and Huh7 cells (a human hepatoma cell line) were employed. The test compounds were prepared in a 9-point fourfold serial dilutions and plated in a 384-well plate. Then, a density of 8000 cells/well and an MOI (Multiplicity of Infection) of 0.25 CHIKV were added to each well. The plates were incubated at 37° C./5% CO2 for 2 days. The antiviral activity of a test compound was measured by addition of an ATPLite™ 1-step kit (PerkinElmer), which measures the ATP levels in live cells protected from viral CPE by a test compound. The cytotoxicity of test compounds was measured in parallel in the absence of virus infection. The readout is luminescence.

HCV polymerase = HCV polymerase (Hepatitis C virus genotype 1b, UniProt Q9WMX2); test: Biochemical HCV polymerase inhibition
HCV polymerase, sequence (Q9WMX2 2420-3010): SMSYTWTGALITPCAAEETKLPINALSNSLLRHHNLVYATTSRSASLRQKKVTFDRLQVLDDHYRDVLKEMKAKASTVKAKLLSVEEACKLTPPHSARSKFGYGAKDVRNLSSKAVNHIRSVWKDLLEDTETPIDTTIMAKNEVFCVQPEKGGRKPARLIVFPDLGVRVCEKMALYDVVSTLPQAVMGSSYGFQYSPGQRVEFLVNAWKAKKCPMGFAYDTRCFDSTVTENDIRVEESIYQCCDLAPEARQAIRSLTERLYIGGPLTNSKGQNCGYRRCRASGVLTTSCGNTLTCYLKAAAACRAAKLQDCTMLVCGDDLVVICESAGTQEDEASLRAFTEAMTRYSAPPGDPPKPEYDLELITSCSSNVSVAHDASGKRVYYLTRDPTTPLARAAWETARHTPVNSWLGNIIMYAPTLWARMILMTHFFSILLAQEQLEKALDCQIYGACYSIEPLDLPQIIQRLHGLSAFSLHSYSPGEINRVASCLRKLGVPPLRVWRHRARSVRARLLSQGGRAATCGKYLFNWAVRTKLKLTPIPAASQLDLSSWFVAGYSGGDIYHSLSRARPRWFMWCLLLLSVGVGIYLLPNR

[6] = Table 1A, Huh-Luc replicon cells, 3 days, read-out: HCV Huh-7 (EC50)
[7] = read-out: CHIKV Huh-7 (EC50, μM)
[8] = Table 1A, Huh7 cells, MOI 0.25, 2 days, read-out: CHIKV Huh-7 (EC50)

Structure (SMILES) | CC50 [1] [µM] | EC50 (DENV-2/16681/eGFP [2]) [µM] | CC50 [3] [µM] | EC50 [4, 6] [µM] | EC50 (DENV-2/16681/eGFP [5]) [µM] | EC50 (CHIKV strain S27; [7]) [µM] | EC50 (CHIKV strain S27; [8]) [µM] | EC50 ([4]; read-out: HCV Huh-7 (EC50, μM)) [µM] | IC50 (HCV polymerase) [nM]
Nc1ccn([C@@H]2O[C@](F)(CO)[C@@H](O)[C@]23CCS3)c(=O)n1 [Compound 27, 4-amino-1-((4R,5R,7S,8R)-7-fluoro-8-hydroxy-7-(hydroxymethyl)-6-oxa-1-thiaspiro[3.4]octan-5-yl)pyrimidin-2(1H)-one] | > 100 | 50 | > 100 | > 100 | 77 | > 100 |  |  | 
CC(C)OC(=O)[C@H](C)NP(=O)(OC[C@@]1(F)O[C@@H](n2ccc(N)nc2=O)[C@@]2(CCS2)[C@@H]1O)Oc1ccccc1 (stereo partly drawn) [Compound 31, (2S)-isopropyl 2-(((((4R,5R,7S,8R)-5-(4-amino-2-oxopyrimidin-1(2H)-yl)-7-fluoro-8-hydroxy-6-oxa-1-thiaspiro[3.4]octan-7-yl)methoxy)(phenoxy)phosphoryl)amino)propanoate] | > 100 | > 100 | > 100 | 11 | 36 |  | > 100 |  | 
O=c1ccn([C@@H]2O[C@](F)(COP(=O)(Oc3ccccc3Cl)OC3CCCC3)[C@@H](O)[C@]23CCS3)c(=O)[nH]1 (stereo partly drawn) [Compound 34, 2-chlorophenyl cyclopentyl (((4R,5R,7S,8R)-5-(2,4-dioxo-3,4-dihydropyrimidin-1(2H)-yl)-7-fluoro-8-hydroxy-6-oxa-1-thiaspiro[3.4]octan-7-yl)methyl) phosphate] | > 100 | 35 | > 100 |  | 53 | > 100 |  | > 100 | 
O=c1ccn([C@@H]2O[C@]3(F)COP(=O)(OC4CCCC4)O[C@H]3[C@]23CCS3)c(=O)[nH]1 (stereo partly drawn) [Compound 35, 1-((2′R,4aS,6R,7aR)-2-(cyclopentyloxy)-4a-fluoro-2-oxidotetrahydrospiro[furo[3,2-d][1,3,2]dioxaphosphinine-7,2′-thietan]-6-yl)pyrimidine-2,4(1H,3H)-dione] | > 100 | > 100 | > 100 | 25 | > 100 | 72 |  |  | 
CC(C)OP(=O)(OC[C@@]1(F)O[C@@H](n2ccc(=O)[nH]c2=O)[C@@]2(CCS2)[C@@H]1O)Oc1ccc(Cl)cc1 (stereo partly drawn) [Compound 37, 4-chlorophenyl (((4R,5R,7S,8R)-5-(2,4-dioxo-3,4-dihydropyrimidin-1(2H)-yl)-7-fluoro-8-hydroxy-6-oxa-1-thiaspiro[3.4]octan-7-yl)methyl) isopropyl phosphate] | > 100 | > 100 | > 100 |  | > 100 | > 100 |  | > 100 | 
O=c1ccn([C@@H]2O[C@](F)(COP(=O)(NC3CCC3)Oc3ccc(Cl)cc3)[C@@H](O)[C@]23CCS3)c(=O)[nH]1 (stereo partly drawn) [Compound 39, 4-chlorophenyl (((4R,5R,7S,8R)-5-(2,4-dioxo-3,4-dihydropyrimidin-1(2H)-yl)-7-fluoro-8-hydroxy-6-oxa-1-thiaspiro[3.4]octan-7-yl)methyl) cyclobutylphosphoramidate] | > 100 | 45 | > 100 | > 100 | 49 |  | > 100 |  | 
O=c1ccn([C@@H]2O[C@]3(F)CO[P@](=O)(NC4CCC4)O[C@H]3[C@]23CCS3)c(=O)[nH]1 [Compound 40a, 1-((2R,2′R,4aS,6R,7aR)-2-(cyclobutylamino)-4a-fluoro-2-oxidotetrahydrospiro[furo[3,2-d][1,3,2]dioxaphosphinine-7,2′-thietan]-6-yl)pyrimidine-2,4(1H,3H)-dione] | > 100 | > 100 | > 100 | > 100 | > 100 |  | > 100 |  | 
O=c1ccn([C@@H]2O[C@]3(F)CO[P@@](=O)(NC4CCC4)O[C@H]3[C@]23CCS3)c(=O)[nH]1 [Compound 40b, 1-((2S,2′R,4aS,6R,7aR)-2-(cyclobutylamino)-4a-fluoro-2-oxidotetrahydrospiro[furo[3,2-d][1,3,2]dioxaphosphinine-7,2′-thietan]-6-yl)pyrimidine-2,4(1H,3H)-dione] | > 100 | > 100 | > 100 | > 100 | > 100 |  | > 100 |  | 
[N-]=[N+]=N[C@]1(CO)O[C@@H](n2ccc(=O)[nH]c2=O)[C@@]2(CCS2)[C@@H]1O [Compound 44, 1-[(4R,5R,6R,8R)-6-azido-5-hydroxy-6-(hydroxymethyl)-7-oxa-1-thiaspiro[3.4]octan-8-yl]pyrimidine-2,4-dione] | > 100 | > 100 | > 100 | > 100 | > 100 | > 100 |  |  | 
[N-]=[N+]=N[C@]1(COP(=O)(O)OP(=O)(O)OP(=O)(O)O)O[C@@H](n2ccc(=O)[nH]c2=O)[C@@]2(CCS2)[C@@H]1O [Compound 62] |  |  |  |  |  |  |  |  | 560
Nc1ncnc2c1ncn2[C@@H]1O[C@H](CO)[C@@H](O)[C@]12CCS2 [Compound 67, (4R,5R,7R,8R)-5-(6-amino-9H-purin-9-yl)-7-(hydroxymethyl)-6-oxa-1-thiaspiro[3.4]octan-8-ol] | > 50 | > 50 | > 50 | > 50 | > 50 | > 50 |  |  | 
